The values below come from patent US20260060239A1, “NATURAL-BASED SALICYLIC ACID POLY(ANHYDRIDE ESTER) HYDROGELS FOR AGRICULTURAL APPLICATIONS” (The Regents of The University of California, priority 2022, published 2026).

Data set [1] has as its system micro-tom tomato plants. The settings on record: for percent plant growth (plant height) during dosage window: FIG. 9A. The protocol: Exogenous application of salicylic acid favors plants under stress by regulating processes such as photosynthesis, membrane permeability, nutrient uptake, transpiration, and the activity of antioxidant enzymes. […] Final measurements of plant height, water content, root length, and tomato production yield were also performed.
Micro-tom was germinated from seeds under hydroponic conditions and grown under vertical farming conditions. Soilless clay media was used, and smart fertilizer was applied. Plants were incubated under normal conditions for 16 days. Seedlings were then transplanted using pre-wet clay and incubated under normal conditions in Percival chambers with abundant water supply and regular water exchanges for an additional 34 days. The Percival chambers were used to mimic environmental conditions. The day and night cycles were set for 16 hour (day) at 25° C. followed by 8 hour (night) at 25° C. CO2 levels were maintained at 410 ppm with 70% relative humidity.
Each plant was labeled, and initial measurements were taken including plant height, total number of leaves, branches, and total number of flower buds, flowers and tomatoes if applicable. Individual group pictures were taken as visual record and first dose was applied accordantly to the group's requirements and schedules (FIG. 7). Dose regimen was similar between all groups with a total duration of 7 days (Dosage Window). Doses were applied at days 0, 2 and 4 of the dosage window. Remaining water in the group trays were removed right before dose applications. Chemicals were applied as a powder directly in the clay surface avoiding contact with the plant. All plants received 75 mL right after dose application. At day 7, remaining water in the trays were removed, final plants measurements and visual observation was recorded. Death plants were removed from the study. Extra clay and fertilizer were added, and DI-water was applied to all plants: 150 mL to normal plants and 50 mL to drought plants to activate the fertilizer.

The test system of data set [2] is micro-tom tomato plants. The experiment in a line: Treatment window under drought stress conditions (water supply removed). The data set is classed as in vivo. The settings on record: for first death under drought: FIG. 12. Here is the method: Plants were incubated under normal conditions for 16 days. […] The Percival chambers were used to mimic environmental conditions.
(§1) All plants received 75 mL right after dose application. […] Death plants were removed from the study.
The treatment window corresponds to the period of time where the groups were exposed to either normal conditions with abundant water supply or to intense drought stress conditions where the water supply was completely removed until plants were found dead. At day 48 of the plant cycle, groups correspondent to the drought condition had all the water removed from the tray and were kept in the chamber. Plants under normal conditions had regularly water exchange two times a week until the end of the plant cycle. All plants were closely monitored, and visible observations were recorded, including measurements of plant height, number of leaves, branches, flower buds, flowers, and tomatoed were taken regularly. Clay and fertilizer were applied as needed and dead plants were removed from the study.

Data set [3] has as its system micro-tom tomato plants. The format is in vivo. Here is the method: The Percival chambers were used to mimic environmental conditions.
as §1
At day 48 of the plant cycle, groups correspondent to the drought condition had all the water removed from the tray and were kept in the chamber. Plants under normal conditions had regularly water exchange two times a week until the end of the plant cycle. All plants were closely monitored, and visible observations were recorded, including measurements of plant height, number of leaves, branches, flower buds, flowers, and tomatoed were taken regularly. Clay and fertilizer were applied as needed and dead plants were removed from the study.
The harvest day was determined by the abundant number of red tomatoes: plant measurements were performed as described above. Plants were removed from their pots and clay was washed out of the roots. Tomatoes were harvested, photographed, and measured (diameter, height and mass). Individual plants were also photographed. Root and plant length was recorded, and plant mass was measured using a scale.

[4] abbreviates: 3x: three dosages of 0.05 mmol SA.

Like-named read-outs stand apart in the source and are kept apart here.

As for `O=C(O)c1ccccc1O` [SA, salicylic acid], the “percent plant growth (plant height) during dosage window” value with micro-tom tomato plants [1] (1x: single dose 0.15 mmol SA or equivalent) is recorded as “negligible”; in the data set on micro-tom tomato plants [1] (setting [4]), “smaller than the DI-water control group”. In the data set with micro-tom tomato plants [1] (1x: single dose 0.15 mmol, FIG. 9B), the “variation in the number of branches during dosage window” value is listed as “decrease”. In the data set with micro-tom tomato plants [1] (1x: single powder dose, 0.15 mmol SA (or equivalent in polymer) per plant, FIG. 8), the “stress and deaths after the dosage window” value is “more harmful”. In the data set on micro-tom tomato plants [1] (3x: three dosages of 0.05 mmol SA, compared with SA 1x), the “stress caused during dosage window” value is “less significative”. Besides, in the data set on micro-tom tomato plants [1] (compared with SAPAE), the “plants mortality right after treatment” value is given as “higher”. Further, the “first death under drought” value in the data set with micro-tom tomato plants [2] (1x: single dose 0.15 mmol SA or equivalent, day of treatment window) worked out at 17 days; in the data set on micro-tom tomato plants [2] (setting [4]), 20 days. Also, the “flower production under drought stress” value in the data set with micro-tom tomato plants [2] (3x, 14 days treatment time point, flower buds, no opened flowers, FIG. 11) is reported as “second-best group”. The “plants dead at time of harvest” value in the data set with micro-tom tomato plants [3] (1x, across the study, FIG. 15) was “three”. In the data set on micro-tom tomato plants [3] (1x, harvest day, FIG. 19B), the “total number of red tomatoes per group” value was “least number of red tomatoes”. Further, the “percent plant growth after 14 days” value in the data set with micro-tom tomato plants [3] (1x, normal conditions, FIG. 10A) is “lowest percent growth”. For the same compound, the “variation of number of branches during the treatment window” value in the data set with micro-tom tomato plants [3] (1x, normal conditions, FIG. 13B) is given as “highest variation”. Also, the “roots holding the clay after removal from the pot” value in the data set with micro-tom tomato plants [3] (3x, harvest) is reported as “stronger at holding the clay in place”. Besides, the “total number of tomatoes per group” value with micro-tom tomato plants [3] (3x, harvest day, compared with DI water, FIG. 19A) is “similar”.
